pKi: −log10 of the molar value.
Target: T1, recombinant human NK3 receptor (Homo sapiens, UniProt P29371)
T1 construct: expressed in transfected cells; host or cells: HEK293 cells (transient expression), membranes
T1 sequence (P29371 1-465): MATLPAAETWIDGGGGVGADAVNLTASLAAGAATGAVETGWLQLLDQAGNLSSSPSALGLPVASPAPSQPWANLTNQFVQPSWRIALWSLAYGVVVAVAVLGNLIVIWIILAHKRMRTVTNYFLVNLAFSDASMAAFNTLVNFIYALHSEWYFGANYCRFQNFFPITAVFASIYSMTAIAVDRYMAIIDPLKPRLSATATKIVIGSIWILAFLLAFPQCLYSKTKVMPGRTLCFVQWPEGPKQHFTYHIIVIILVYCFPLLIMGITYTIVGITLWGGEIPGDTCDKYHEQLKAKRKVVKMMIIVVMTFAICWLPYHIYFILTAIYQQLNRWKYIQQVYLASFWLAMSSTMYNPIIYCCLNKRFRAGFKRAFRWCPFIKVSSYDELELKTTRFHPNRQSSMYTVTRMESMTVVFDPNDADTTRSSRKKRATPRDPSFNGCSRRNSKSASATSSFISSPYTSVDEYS
Experiment: [3H]SR142801 competition binding assay
Settings: membranes from HEK293 cells transiently expressing recombinant human NK3 receptor; [3H]SR142801 radioligand; 75 min at RT; Ki by Cheng-Prussoff; read-out: Data Ki (hNK-3 receptor affinity)
Procedure: [^3H]SR142801 Competition Binding Assay
hNK3 receptor binding experiment were performed using [^3H]SR142801 (Catalog No. TRK1035, specific activity: 74.0 Ci/mmol, Amersham, GE Healthcare UK limited, Buckinghamshire, UK) and membrane isolated from HEK293 cells transiently expressing recombinant human NK3 receptor. After thawing, the membrane homogenates were centrifuged at 48,000×g for 10 min at 4° C., the pellets were resuspended in the 50 mM Tris-HCl, 4 mM MnCl2, 1 μM phosphoramidon, 0.1% BSA binding buffer at pH 7.4 to a final assay concentration of 5 μg protein/well. […] At the end of the incubation, membranes were filtered onto unitfilter (96-well white microplate with bonded GF/C filter preincubated 1 h in 0.3% PEI+0.3% BSA, Packard BioScience, Meriden, Conn.) with a Filtermate 196 harvester (Packard BioScience) and washed 4 times with ice-cold 50 mM Tris-HCl, pH 7.4 buffer. Nonspecific binding was measured in the presence of 10 μM SB222200 for both radioligands. The radioactivity on the filter was counted (5 min) on a Packard Top-count microplate scintillation counter with quenching correction after addition of 45 μl of microscint 40 (Can berra Packard S. A., Zurich, Switzerland) and shaking for 1 h. Inhibition curves were fitted according to the Hill equation: y=100/(1+(x/IC50)^nH), where nH=slope factor using Excel-fit 4 software (Microsoft). IC50 values were derived from the inhibition curve and the affinity constant (Ki) values were calculated using the Cheng-Prussoff equation Ki═IC50/(1+[L]/KD) where [L] is the concentration of radioligand and KD is its dissociation constant at the receptor, derived from the saturation isotherm. All experiments were performed in duplicate and the mean±standard error (SEM) of the individual Ki values was calculated.

SMILES | pKi
Cc1nnc(C)n1C1CCN(C(=O)N2CCC(C(=O)N[C@@H](C)c3ccccc3)(c3ccccc3)CC2)CC1 [Example 220, 1-[4-(3,5-Dimethyl-[1,2,4]triazol-4-yl)-piperidine-1-carbonyl]-4-phenyl-piperidine-4-carboxylic acid ((S)-1-phenyl-ethyl)-amide] | 7.19
C[C@H](NC(=O)C1(c2ccccc2)CCN(C(=O)N2CCC(N3CCS(=O)(=O)CC3)CC2)CC1)c1ccc(F)cc1 [Example 223, 1-[4-(1,1-Dioxo-1λ6-thiomorpholin-4-yl)-piperidine-1-carbonyl]-4-phenyl-piperidine-4-carboxylic acid [(S)-1-(4-fluoro-phenyl)-ethyl]-amide] | 8.22
C[C@H](NC(=O)C1(c2ccccc2)CCN(C(=O)c2ccc(N3CCS(=O)(=O)CC3)nc2)CC1)c1ccccc1 [Example 98, 1-[6-(1,1-Dioxo-1λ6-thiomor-pholin-4-yl)-pyridine-3-carbonyl]-4-phenyl-piperidine-4-carboxylic acid ((S)-1-phenyl-ethyl)-amide] | 7.47
Cc1nc(-c2ccc(C(=O)N3CCC(C(=O)N[C@@H](C)c4ccc(F)cc4)(C4CCCC4)CC3)cc2)no1 [Example 112, 4- Cyclopentyl-1-[4-(5-methyl-[1,2,4]oxa-diazol-3-yl)-benzoyl]-piperidine-4-carboxylic acid [(S)-1-(4-fluoro-phenyl)-ethyl]-amide] | 7.08
C[C@H](NC(=O)C1(c2ccccc2)CCN(C(=O)N2CCN(c3cnccn3)CC2)CC1)c1ccccc1 [Example 209, 4-Phenyl-1-(2,3,5,6-tetrahydro-[1,2′]bipyrazinyl-4-carbonyl)-piperidine-4-carboxylic acid ((S)-1-phenyl-ethyl)-amide] | 7.23
C[C@H](NC(=O)C1(c2ccccc2)CCN(C(=O)c2ccc(N3CCCCC3=O)cc2)CC1)c1ccccc1 [Example 63] | 7.35
Cc1nc(-c2ccc(C(=O)N3CCC(C(=O)N[C@@H](C)c4cccc(F)c4)(c4ccc(F)cc4)CC3)cc2)no1 [Example 167, 4-(4-Fluoro-phenyl)-1-[4-(5-methyl-[1,2,4]oxadiazol-3-yl)-benzoyl]-piperidine-4-carboxylic acid [(S)-1-(3-fluoro-phenyl)-ethyl]-amide] | 7.77
O=C(c1ccc(-c2ccc(F)cc2)cc1)N1CCC(C(=O)NNc2ccc(F)c(F)c2)(c2ccc(F)cc2)CC1 [Example 191, 1-(4′-Fluoro-biphenyl-4-carbonyl)-4-(4-fluoro-phenyl)-piperidine-4-carboxylic acid N′-(3,4-difluoro-phenyl)-hydrazide] | 7.77
O=C(c1ccc(-c2ccc(F)cc2)cc1)N1CCC(C(=O)N[C@@H](CO)c2ccc(F)cc2)(c2ccc(F)cc2)CC1 [Example 151, 1-(4′-Fluoro-biphenyl-4-carbonyl)-4-(4-fluoro-phenyl)-piperidine-4-carboxylic acid [(R)-1-(4-fluoro-phenyl)-2-hydroxy-ethyl]-amide] | 7.94
Cc1noc(-c2ccc(C(=O)N3CCC(C(=O)N[C@@H](C)c4ccc(Cl)cc4)(c4ccccc4)CC3)cc2)n1 [Example 104, 1-[4-(3-Methyl-[1,2,4]oxa-diazol-5-yl)-benzoyl]-4-phenyl-piperidine-4-carboxylic acid [(S)-1-(4-chloro-phenyl)-ethyl]-amide] | 7.95
C[C@H](NC(=O)C1(c2ccccc2)CCN(C(=O)N2CCN(c3ccccc3)CC2)CC1)c1ccccc1 [Example 232, 4-Phenyl-1-(4-phenyl-piperazine-1-carbonyl)-piperidine-4-carboxylic acid ((S)-1-phenyl-ethyl)-amide] | 7.44
O=C(c1ccc(-c2ccc(F)cc2)cc1)N1CCC(C(=O)N[C@@H](CO)c2ccccc2)(c2ccc(F)cc2)CC1 [Example 140, 1-(4′-Fluoro-biphenyl-4-carbonyl)-4-(4-fluoro-phenyl)-piperidine-4-carboxylic acid ((R)-2-hydroxy-1-phenyl-ethyl)-amide] | 8.11

Next, values leading:

pKi | SMILES
7.82 | N#Cc1ccc(N2CCC(C(=O)N3CCC(C(=O)N[C@H](c4cccc(F)c4)C4CC4)(c4ccc(F)cc4)CC3)CC2)nc1 [Example 195, 1-(5′-Cyano-3,4,5,6-tetrahydro-2H-[1,2′]bipyridinyl-4-carbonyl)-4-(4-fluoro-phenyl)-piperidine-4-carboxylic acid [(S)-cyclopropyl-(3-fluoro-phenyl)-methyl]-amide]
7.62 | C[C@H](NC(=O)C1(c2ccccc2)CCN(C(=O)c2ccc(-c3ccc(C(F)(F)F)cc3)cc2)CC1)c1ccccc1 [Example 5, 4-Phenyl-1-(4′-trifluoromethyl-biphenyl-4-carbonyl)-piperidine-4-carboxylic acid ((S)-1-phenyl-ethyl)-amide]
7.12 | Cc1ccc(NNC(=O)C2(c3ccc(F)cc3)CCN(C(=O)c3ccc(-c4ccc(F)cc4)cc3)CC2)cc1 [Example 187, 1-(4′-Fluoro-biphenyl-4-carbonyl)-4-(4-fluoro-phenyl)-piperidine-4-carboxylic acid N′-p-tolyl-hydrazide]
7.15 | Cc1ccc(N2CCN(C(=O)N3CCC(C(=O)N[C@@H](C)c4ccccc4)(c4ccccc4)CC3)CC2)cc1 [Example 208, 4-Phenyl-1-(4-p-tolyl-piperazine-1-carbonyl)-piperidine-4-carboxylic acid ((S)-1-phenyl-ethyl)-amide]
7.40 | C[C@H](NC(=O)C1(c2ccccc2)CCN(C(=O)c2ccc(-c3ccncc3)cc2)CC1)c1ccccc1 [Example 7, 4-Phenyl-1-(4-pyndin-4-yl-benzoyl)-piperidine-4-carboxylic acid ((S)-1-phenyl-ethyl)-amide]
7.63 | C[C@H](NC(=O)C1(c2ccccc2)CCN(C(=O)c2ccc(-c3cccnc3)cc2)CC1)c1ccccc1 [Example 53, 4-Phenyl-1-(4-pyridin-3-yl-benzoyl)-piperidine-4-carboxylic acid ((S)-1-phenyl-ethyl)-amide]
8.03 | Cc1noc(-c2ccc(C(=O)N3CCC(C(=O)NC4(c5ccc(F)cc5)CC4)(c4ccc(F)cc4)CC3)cc2)n1 [Example 157, 4-(4-Fluoro-phenyl)-1-[4-(3-methyl-[1,2,4]oxadiazol-5-yl)-benzoyl]-piperidine-4-carboxylic acid [1-(4-fluoro-phenyl)-cyclopropyl]-amide]
8.03 | Cc1nc(-c2ccc(C(=O)N3CCC(C(=O)N[C@@H](C)c4ccccc4)(c4ccccc4)CC3)cc2)no1 [Example 41, 1-[4-(5-Methyl-[1,2,4]oxa-diazol-3-yl)-benzoyl]-4-phenyl-piperidine-4-carboxylic acid ((S)-1-phenyl-ethyl)-amide]
7.45 | C=C(C)CC1(C(=O)N[C@@H](C)c2ccc(F)cc2)CCN(C(=O)c2ccc(-c3ccc(F)cc3)cc2)CC1 [Example 113, 1-(4′-Fluoro-biphenyl-4-carbonyl)-4-(2-methyl-allyl)-piperidine-4-carboxylic acid [(S)-1-(4-fluoro-phenyl)-ethyl]-amide]
8.02 | C[C@H](NC(=O)C1(c2ccccc2)CCN(C(=O)c2ccc(-c3ccc(F)cc3)cc2)CC1)c1ccc(F)cc1 [Example 79, 1-(4′-Fluoro-biphenyl-4-carbonyl)-4-phenyl-piperidine-4-carboxylic acid [(S)-1-(4-fluoro-phenyl)-ethyl]-amide]
7.60 | C[C@H](NC(=O)C1(c2ccccc2)CCN(C(=O)N2CCN(c3ccc(C#N)cn3)CC2)CC1)c1ccccc1 [Example 227, 1-[4-(5-Cyano-pyridin-2-yl)-piperazine-1-carbonyl]-4-phenyl-piperidine-4-carboxylic acid ((S)-1-phenyl-ethyl)-amide]
7.72 | C[C@H](NC(=O)C1(c2ccc(F)cc2)CCN(C(=O)N2CCN(c3ccc(F)cc3)CC2)CC1)c1cccc(F)c1 [Example 178, 4-(4-Fluoro-phenyl)-1-[4-(4-fluoro-phenyl)-piperazine-1-carbonyl]-piperidine-4-carboxylic acid [(S)-1-(3-fluoro-phenyl)-ethyl]-amide]
7.93 | C[C@H](NC(=O)C1(c2ccccc2)CCN(C(=O)c2ccc(N3CCS(=O)(=O)CC3)cc2)CC1)c1ccc(F)cc1 [Example 78, 1-[4-(1,1-Dioxo-1λ6-thiomor-pholin-4-yl)-benzoyl]-4-phenyl-piperidine-4-carboxylic acid [(S)-1-(4-fluoro-phenyl)-ethyl]-amide]

— patent US8324250B2 (Hoffmann-La Roche Inc., priority 2009, dated 2012)
